The values that follow come from patent US6630496B1, “Inhibitors of phospholipase enzymes” (Genetics Institute LLC, priority 1996, dated 2003).

One may read the IC50 as the midpoint of a concentration-inhibition curve.

Molecules are shown by their SMILES. Where two headings read alike, the source gives them in different places.

In experiment [1] the target is T1, cPLA2 (Homo sapiens, UniProt P47712).
T1 sequence (P47712 1-749): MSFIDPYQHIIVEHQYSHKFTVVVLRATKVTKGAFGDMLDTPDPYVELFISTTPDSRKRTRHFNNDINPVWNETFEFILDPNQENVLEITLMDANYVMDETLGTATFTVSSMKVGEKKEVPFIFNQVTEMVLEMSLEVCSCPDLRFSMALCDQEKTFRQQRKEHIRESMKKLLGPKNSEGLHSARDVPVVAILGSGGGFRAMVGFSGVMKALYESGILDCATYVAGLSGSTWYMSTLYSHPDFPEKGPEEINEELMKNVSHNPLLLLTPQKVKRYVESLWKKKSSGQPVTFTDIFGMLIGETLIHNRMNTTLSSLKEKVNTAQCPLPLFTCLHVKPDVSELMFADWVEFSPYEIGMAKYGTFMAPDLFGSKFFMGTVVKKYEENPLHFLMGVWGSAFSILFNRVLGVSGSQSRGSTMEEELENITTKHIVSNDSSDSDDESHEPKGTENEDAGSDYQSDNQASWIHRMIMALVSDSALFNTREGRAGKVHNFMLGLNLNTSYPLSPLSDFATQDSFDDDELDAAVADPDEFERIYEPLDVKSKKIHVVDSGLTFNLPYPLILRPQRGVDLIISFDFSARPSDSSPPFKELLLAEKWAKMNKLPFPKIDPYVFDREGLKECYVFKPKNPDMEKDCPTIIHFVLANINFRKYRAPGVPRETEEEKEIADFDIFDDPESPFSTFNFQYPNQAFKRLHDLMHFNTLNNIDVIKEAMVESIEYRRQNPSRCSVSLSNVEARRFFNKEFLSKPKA
Put plainly: Coumarine assay (7-hydroxycoumarinyl 6-heptenoate hydrolysis). It is filed as biochemical. On the procedure: 7-hydroxycoumarinyl 6-heptenoate was used as a monomeric substrate for cPLA2 as reported previously (Huang, Z. et al., 1994, Analytical Biochemistry 222, 110-115). Inhibitors were mixed with 200 μL assay buffer (80 mM Hepes, pH 7.5, 1 mM EDTA) containing 60 μM 7-hydroxycoumarinyl 6-heptenoate. The reaction was initiated by adding 4 μg cPLA2 in 50 μL assay buffer. Hydrolysis of the 7-hydroxycoumarinyl 6-heptenoate ester was monitored in a fluorometer by exciting at 360 nm and monitoring emission at 460 nm. Enzyme activity is proportional to the increasein emission at 460 nm per minute. In the presence of a cPLA2 inhibitor, the rate of increase is less.

The target in experiment [2] is T1, cPLA2. Put plainly: Soluble substrate assay (LysoPC). The format is biochemical. On the procedure:
(b) Soluble Substrate Assay (LysoPC)
The lipid was resuspended by vortexing 80 mM Hepes pH 7.5, 1 mM EDTA (1.2×final concentration). A typical assay consisted of lipid suspension (85 μl) to which was added consecutively the inhibitor (5 μl in DMSO) and cPLA2, 200 ng in 80 mM Hepes pH 7.5, 2 mM DTT and […]. This assay was conducted by either the manual assay or automated assay protocol described below.

Experiment [3] has as its system carrageenan-induced footpad edema. The experiment can be described thus: Rat carrageenan-induced footpad edema test. The settings on record: iv, read-out: % inhibition of rat carrageenan-induced footpad edema. The format is in vivo. On the procedure: Compounds of the present invention were also tested for in vivo activity in a rat paw edema test according to the procedure described in Example 89.
Rat Carrageenan-Induced Footpad Edema Test
Each compound was suspended in 0.3 ml absolute ethanol, 0.1 ml Tween-80 and 2.0 ml Dulbecco's PBS (without calcium or magnesium). To this mixture, 0.1 ml 1N NaOH was added. After solution was complete, additional amounts of PBS were added to adjust the concentration to 1 mg/ml. All comounds remained in solution. Compounds were administered i.v. in a volumne of 5 ml/kg to male Sprague Dawley rats at the same time that edema was induced by injection of 0.05 ml of 1% Type IV carrageenan into the hind footpad. Footpad volume was measured before dosing with compound and 3 hours after dosing with carageenan.

Setting [4] is: 60 μM 7-hydroxycoumarinyl 6-heptenoate, read-out: IC50 (μM) Coumarine.
[5] abbreviates: NA = inhibitory activity not detected, read-out: IC50 (μM) Lyso PC.
Setting [6] is: 1 mg/ml, 5 ml/kg, male Sprague Dawley rats, footpad volume 3 hours after carrageenan.

`O=C(O)c1cccc(NC(=O)c2cc3cc(OCc4ccccc4)ccc3n2Cc2ccc(COc3cc(C(F)(F)F)cc(C(F)(F)F)c3)cc2)c1` [Example 8]: the IC50 against cPLA2 [1] amounted to 3.8 µM; on cPLA2 [2], 0.11 µM. The inhibition in vivo at 1000 µg/mL, 5 mg/kg in experiment [3] (3 h) is 29%.
The like results for `O=C(O)c1cc(NC(=O)c2cc3cc(OCc4ccccc4)ccc3n2Cc2ccc(C(F)(F)F)cc2C(F)(F)F)ccc1Oc1ccc(Cl)nc1` [Example 10] were, in that order, 28 µM, 0.33 µM and 8.9%.
In the case of `CCC(C)(C)c1ccc(OCC(=O)N2c3ccc(OCc4ccccc4)cc3CC2CSCC(=O)Nc2cccc(C(=O)O)c2)c(C(C)(C)CC)c1` (centres unmarked) [Example 17, 3-(2-(-5-Benzyloxy-1-(2,4-bis(1,1-dimethy)propyl)phenoxyacetyl)indolinyl)methylthioacetamidobenzoic Acid], the IC50 was determined as 6 µM at cPLA2 [1] (setting [4]) and 0.32 µM at cPLA2 [2] (setting [5]). For the same compound, the inhibition in vivo at 1000 µg/mL, 5 mg/kg in experiment [3] (setting [6]) was determined as 29.3%.
The corresponding values for `O=C(CSCC1Cc2cc(OCc3ccc4ccccc4n3)ccc2N1C(=O)COc1cc(C(F)(F)F)cc(C(F)(F)F)c1)Nc1cc(C(F)(F)F)cc(C(F)(F)F)c1` (centres unmarked) [Example 50] are > 50 µM, 4.4 µM and 11.7%.
As to `CCC(C)(C)c1ccc(OCC(=O)N2c3ccc(OCc4ccccc4)cc3CC2CSc2ccccc2C(=O)O)c(C(C)(C)CC)c1` (centres unmarked) [Example 67, 2-(2-(-5-Benzyloxy-1-(2,4-bis(1,1-dimethy)propyl)phenoxyacetyl)indolinyl)methylthiobenzoic Acid], the values for the IC50 on cPLA2 [1] (setting [4]) and on cPLA2 [2] (setting [5]) were 10 µM and 0.22 µM, respectively. The inhibition in vivo at 1000 µg/mL, 5 mg/kg in experiment [3] (setting [6]) turned out to be 17.5%.
On to `CCC(C)(C)c1ccc(OCC(=O)N2c3ccc(OCc4ccccc4)cc3CC2CSCC(=O)N(C)c2cc(C(=O)O)ccc2OC)c(C(C)(C)CC)c1` (centres unmarked) [Example 70, 3-N-Methyl-(2-(-5-benzyloxy-1-(2,4-bis(1,1-dimethy)propyl)phenoxyacetyl)indolinyl)methylthioacetamido-4-methoxybenzoic Acid], for which the IC50 was found to be 19 µM on cPLA2 [1] (setting [4]) and 0.84 µM at cPLA2 [2] (setting [5]). Moreover, in experiment [3] (setting [6]), the inhibition in vivo at 1000 µg/mL, 5 mg/kg turned out to be 21.7%.
For `O=C(O)c1ccccc1SCC1Cc2cc(OCc3ccccc3)ccc2N1Cc1ccc(COc2cc(C(F)(F)F)cc(C(F)(F)F)c2)cc1` (centres unmarked) [Example 77], on cPLA2 [1] (setting [4]), the IC50 was determined as 2.5 µM. Further, the inhibition in vivo at 1000 µg/mL, 5 mg/kg in experiment [3] (setting [6]) was found to be 13%.
